# Target: T1, MLK-7 (Homo sapiens, UniProt Q9NYL2)
# T1 construct: GST; His tag; made in house; host or cells: Sf9 insect cells (baculovirus, pVL1392)
# Assay: In vitro assay of purified MLK-7 kinase activity (33P transfer from ATP to myelin basic protein)
# Assay type: biochemical
# Settings: recombinant GST-tagged MLK-7 at 1 nm, 30 uM ATP, 5 uM MBP substrate, 2 hours room temperature; read-out: MLK7 IC50
# Description: In Vitro Assay of Purified Mixed Lineage Kinase 7 (MLK-7) Activity:
# Briefly, recombinant glutathione-s-transferase (GST) tagged MLK-7 is expressed in Sf9 cells using a recombinant baculovirus created using baculovirus transfer vector pVL1392 modified to contain a GST and histidine tag. The recombinant protein is purified over a glutathione column and subsequently used for in vitro kinase assays with myelin basic protein (MBP) as the substrate for phosphorylation. The in vitro kinase reaction is run with recombinant MLK-7 at 1 nm and various concentrations of test compound in a reaction mixture containing 2 mM DTT, 30 uM ATP, 5 mM MgCl2, 5 uM MBP, 4% DMSO, 5 uCi 33P in 44 mM HEPES, (pH 7.4). The reaction is carried out for 2 hours at room temperature and then stopped by the addition of phosphoric acid to 5.5%. The phosphorylated MBP is collected on a filter and radioactivity associated with the membrane measured using a scintillation counter. Inhibitors are identified by the ability to reduce the transfer of radioactive phosphate from ATP to MBP compared to controls run without test compound.
# IC50 values, defined as the concentration of test compound required to decrease the transfer of radioactive phosphate from ATP to MBP by 50%, are then determined. Ki values (which refers to the dissociation constant of an enzyme-antagonist complex and serves as an index of ligand binding) for each respective test compound can also be calculated by application of the Cheng-Prusoff equation as described in Cheng et al., Relationship Between The Inhibition Constant (Ki) and The Concentration of Inhibitor Which Causes 50% Inhibition (IC50) of an Enzymatic Reaction, Biochem. Pharmacol., 22: […]; (1973).
# Representative compounds of the present invention have an IC50 in the MLK-7 kinase assay of ≦10,000 nM Table I (see infra.) provides IC50 data from the afore mentioned MLK-7 kinase assay for a representative sample of the exemplified compounds of the present invention.
# T1 sequence (Q9NYL2 1-455 isoform Q9NYL2-2): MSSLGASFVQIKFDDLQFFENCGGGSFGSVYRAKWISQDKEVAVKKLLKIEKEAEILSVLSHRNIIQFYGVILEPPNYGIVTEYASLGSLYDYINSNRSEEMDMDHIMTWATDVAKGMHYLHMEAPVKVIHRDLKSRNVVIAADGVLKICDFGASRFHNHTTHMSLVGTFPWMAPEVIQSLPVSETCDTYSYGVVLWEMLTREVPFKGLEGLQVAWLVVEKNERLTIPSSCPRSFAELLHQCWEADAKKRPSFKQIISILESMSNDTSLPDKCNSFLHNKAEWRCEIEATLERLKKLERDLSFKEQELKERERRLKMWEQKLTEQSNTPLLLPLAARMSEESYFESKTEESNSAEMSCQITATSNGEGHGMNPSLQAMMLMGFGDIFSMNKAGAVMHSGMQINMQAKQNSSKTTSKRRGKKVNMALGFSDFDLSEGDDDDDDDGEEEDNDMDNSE
row,IC50 [nM],Compound
1,≤ 100,"c1ccc(-c2nn3c(c2-c2ccnc4cc(-c5ccoc5)ccc24)CCC3)nc1 [Example 51, 7-Furan-3-yl-4-(2-pyridin-2-yl-5,6-dihydro-4H-pyrrolo[1,2-b]pyrazol-3-yl)quinoline Trifluoroacetic Acid]"
2,≤ 10000,"c1ccc(-c2nn3c(c2-c2ccnc4cc(-c5ccc(C6CCCCC6)cc5)ccc24)CCC3)nc1 [Example 53, 7-(4-Cyclohexyl-phenyl)-4-(2-pyridin-2-yl-5,6-dihydro-4H-pyrrolo[1,2-b]pyrazol-3-yl)-quinoline Trifluoroacetic Acid]"
3,≤ 100,"Cc1cccc(-c2nn3c(c2-c2ccnc4cc(-c5ccc(C(=O)O)cc5)ccc24)CCC3)n1 [Example 57, 4-{4-[2-(6-Methyl-pyridin-2-yl)-5,6-dihydro-4H-pyrrolo[1,2-b]pyrazol-3-yl]-quinolin-7-yl}-benzoic acid]"
4,≤ 100,"Cc1cccc(-c2nn3c(c2-c2ccnc4cc(-c5cccs5)ccc24)CCC3)n1 [Example 62, 4-[2-(6-Methyl-pyridin-2-yl)-5,6-dihydro-4H-pyrrolo[1,2-b]pyrazol-3-yl]-7-thiophen-2-yl-quinoline Trifluoroacetic Acid]"
5,≤ 100,"Cc1cccc(-c2nn3c(c2-c2ccnc4cc(-c5cccc([N+](=O)[O-])c5)ccc24)CCC3)n1 [Example 63, 4-[2-(6-Methyl-pyridin-2-yl)-5,6-dihydro-4H-pyrrolo[1,2-b]pyrazol-3-yl]-7-(3-nitro-phenyl)quinoline]"
6,≤ 100,"c1ccc(-c2nn3c(c2-c2ccnc4cc(-c5ccco5)ccc24)CCC3)nc1 [Example 65, 7-Furan-2-yl-4-(2-Pyridin-2-yl-5,6-dihydro-4H-pyrrolo[1,2-b]pyrazol-3-yl)quinoline Trifluoroacetic Acid]"
7,≤ 100,"c1ccc(-c2ccc3c(-c4c(-c5ccccn5)nn5c4CCC5)ccnc3c2)nc1 [Example 68, 7-Pyridin-2-yl-4-(2-Pyridin-2-yl-5,6-dihydro-4H-pyrrolo[1,2-b]pyrazol-3-yl)quinoline Ditrifluoroacetic Acid]"
8,≤ 100,"c1ccc(-c2nn3c(c2-c2ccnc4cc(-c5cc6ccccc6[nH]5)ccc24)CCC3)nc1 [Example 70, 7-(1H-Indol-2-yl)-4-(2-pyridin-2-yl-5,6-dihydro-4H-pyrrolo[1,2-b]pyrazol-3-yl)quinoline Ditrifluoroacetic Acid]"
9,≤ 100,"O=C(O)Cc1ccc(-c2ccc3c(-c4c(-c5ccccn5)nn5c4CCC5)ccnc3c2)cc1 [Example 74, {4-[4-(2-pyridin-2-yl-5,6-dihydro-4H-pyrrolo[1,2-b]pyrazol-3-yl)quinolin-7-yl]phenyl}acetic Acid Trifluoroacetic Acid]"
10,≤ 100,"CS(=O)(=O)c1ccc(-c2ccc3c(-c4c(-c5ccccn5)nn5c4CCC5)ccnc3c2)cc1 [Example 75, 7-(4-Methanesulfonylphenyl)-4-(2-pyridin-2-yl-5,6-dihydro-4H-pyrrolo[1,2-b]pyrazol-3-yl)quinoline Trifluoroacetic Acid]"
11,≤ 100,"Cc1ccc(-c2ccc3c(-c4c(-c5ccccn5)nn5c4CCC5)ccnc3c2)cc1 [Example 77, 4-(2-pyridin-2-yl-5,6-dihydro-4H-pyrrolo[1,2-b]pyrazol-3-yl)-7-p-tolylquinoline Trifluoroacetic Acid]"
12,≤ 10000,"Fc1ccc(-c2ccc3c(-c4c(-c5ccccn5)nn5c4CCC5)ccnc3c2)nc1 [Example 83, 7-(5-Fluoropyridin-2-yl)-4-(2-Pyridin-2-yl-5,6-dihydro-4H-pyrrolo[1,2-b]pyrazol-3-yl)quinoline Ditrifluoroacetic Acid]"

# The remaining lines, values behind:
row,Compound,IC50 [nM]
1,"Clc1ccc(-c2ccc3c(-c4c(-c5ccccn5)nn5c4CCC5)ccnc3c2)cc1Cl [Example 55, 7-(3,4-Dichlorophenyl)-4-(2-pyridin-2-yl-5,6-dihydro-4H-pyrrolo[1,2-b]pyrazol-3-yl)-quinoline]",≤ 1000
2,"Cc1cccc(-c2nn3c(c2-c2ccnc4cc(-c5ccc(CCC(=O)O)cc5)ccc24)CCC3)n1 [Example 58, 3-(4-{4-[2-(6-Methyl-pyridin-2-yl)-5,6-dihydro-4H-pyrrolo[1,2-b]pyrazol-3-yl]-quinolin-7-yl}-phenyl)-propionic acid]",≤ 100
3,"Cc1cccc(-c2nn3c(c2-c2ccnc4cc(-c5ccc(F)cc5)ccc24)CCC3)n1 [Example 59, 7-(4-Fluoro-phenyl)-4-[2-(6-methyl-pyridin-2-yl)-5,6-dihydro-4H-pyrrolo[1,2-b]pyrazol-3-yl]-quinoline]",≤ 100
4,"COc1ccc(-c2ccc3c(-c4c(-c5cccc(C)n5)nn5c4CCC5)ccnc3c2)cc1 [Example 60, 7-(4-Methoxy-phenyl)-4-[2-(6-methyl-pyridin-2-yl)-5,6-dihydro-4H-pyrrolo[1,2-b]pyrazol-3-yl]-quinoline]",≤ 100
5,"Cc1cccc(-c2nn3c(c2-c2ccnc4cc(-c5ccccc5)ccc24)CCC3)n1 [Example 61, 7-Phenyl-4-[2-(6-methyl-pyridin-2-yl)-5,6-dihydro-4H-pyrrolo[1,2-b]pyrazol-3-yl]-quinoline Trifluoroacetic Acid]",≤ 100
6,"Cc1cccc(-c2nn3c(c2-c2ccnc4cc(-c5ccc(Cl)cc5)ccc24)CCC3)n1 [Example 64, 7-(4-Chloro-phenyl)-4-[2-(6-methyl-pyridin-2-yl)-5,6-dihydro-4H-pyrrolo[1,2-b]pyrazol-3-yl]-quinoline]",≤ 1000
7,"c1ccc(-c2nn3c(c2-c2ccnc4cc(-c5nccs5)ccc24)CCC3)nc1 [Example 66, 4-(2-Pyridin-2-yl-5,6-dihydro-4H-pyrrolo[1,2-b]pyrazol-3-yl)-7-thiazol-2-yl-quinoline Trifluoroacetic Acid]",≤ 100
8,"c1ccc(-c2nn3c(c2-c2ccnc4cc(-c5cnccn5)ccc24)CCC3)nc1 [Example 67, 7-Pyrazin-2-yl-4-(2-Pyridin-2-yl-5,6-dihydro-4H-pyrrolo[1,2-b]pyrazol-3-yl)quinoline Ditrifluoroacetic Acid]",≤ 1000
9,"c1ccc(-c2nn3c(c2-c2ccnc4cc(-c5ccc[nH]5)ccc24)CCC3)nc1 [Example 69, 4-(2-pyridin-2-yl-5,6-dihydro-4H-pyrrolo[1,2-b]pyrazol-3-yl)-7-(1H-pyrrol-2-yl)quinoline Ditrifluoroacetic Acid]",≤ 100
10,"c1ccc(-c2nn3c(c2-c2ccnc4cc(-c5cc[nH]c5)ccc24)CCC3)nc1 [Example 71, 4-(2-pyridin-2-yl-5,6-dihydro-4H-pyrrolo[1,2-b]pyrazol-3-yl)-7-(1H-pyrrol-3-yl)quinoline Ditrifluoroacetic Acid]",≤ 100
11,"c1ccc(-c2nn3c(c2-c2ccnc4cc(C5CCCCC5)ccc24)CCC3)nc1 [Example 72, 7-Cyclohexyl-4-(2-pyridin-2-yl-5,6-dihydro-4H-pyrrolo[1,2-b]pyrazol-3-yl)quinoline Trifluoroacetic Acid]",≤ 10000
12,"OCCOc1ccc(-c2ccc3c(-c4c(-c5ccccn5)nn5c4CCC5)ccnc3c2)cc1 [Example 73, 2-{4-[4-(2-Pyridin-2-yl-5,6-dihydro-4H-pyrrolo[1,2-b]pyrazol-3-yl)quinolin-yl]phenoxy}ethanol Trifluoroacetic Acid]",≤ 100
13,"NCCc1ccc(-c2ccc3c(-c4c(-c5ccccn5)nn5c4CCC5)ccnc3c2)cc1 [Example 76, 2-{4-[4-(2-pyridin-2-yl-5,6-dihydro-4H-pyrrolo[1,2-b]pyrazol-3-yl)quinolin-7-yl]phenyl}ethylamine Ditrifluoroacetic Acid]",≤ 100
14,"Nc1ccc(-c2ccc3c(-c4c(-c5ccccn5)nn5c4CCC5)ccnc3c2)cc1F [Example 78, 2-Fluoro-4-[4-(2-pyridin-2-yl-5,6-dihydro-4H-pyrrolo[1,2-b]pyrazol-3-yl)quinolin-7-yl]phenylamine Ditrifluoroacetic Acid]",≤ 100
15,"O=C(O)c1cc(C(=O)O)cc(-c2ccc3c(-c4c(-c5ccccn5)nn5c4CCC5)ccnc3c2)c1 [Example 79, 5-[4-(2-Pyridin-2-yl-5,6-dihydro-4H-pyrrolo[1,2-b]pyrazol-3-yl)quinolin-7-yl]isophthalic Acid Trifluoroacetic Acid]",≤ 10000
16,"COC(=O)c1cc(C(=O)OC)cc(-c2ccc3c(-c4c(-c5ccccn5)nn5c4CCC5)ccnc3c2)c1 [Example 80, 5-[4-(2-Pyridin-2-yl-5,6-dihydro-4H-pyrrolo[1,2-b]pyrazol-3-yl)quinolin-7-yl]isophthalic Acid Dimethyl Ester Trifluoroacetic Acid]",≤ 10000
17,O=S1(=O)Cc2ccc(-c3ccc4c(-c5c(-c6ccccn6)nn6c5CCC6)ccnc4c3)cc2C1 [Example 81],≤ 100
18,"O=C(O)c1cccc(-c2ccc3c(-c4c(-c5ccccn5)nn5c4CCC5)ccnc3c2)n1 [Example 82, 6-[4-(2-Pyridin-2-yl-5,6-dihydro-4H-pyrrolo[1,2-b]pyrazol-3-yl)quinolin-7-yl]pyridine-2-carboxylic Acid Tris-trifluoroacetic Acid]",≤ 100

# Source: patent US7511065B2, “Mixed lineage kinase modulators” (Eli Lilly and Company, priority 2002, dated 2009)
